These results are taken from patent US20260285853A1, “COMPOUNDS AND METHODS FOR MODULATING SPLICING” (REMIX THERAPEUTICS INC., priority 2023, published 2026).

Type in all cases: cell-based
Assay [1] deals with HTT mRNA. The experiment in a line: Splicing RT-qPCR assay (THP), Table 2A. To be noted: Table 2A (THP); for AC50: AJ mRNA increase, read-out: HTT AJ (increase in alternative junction mRNA, AC50); for IC50: CJ mRNA decrease, read-out: HTT CJ (decrease in canonical junction mRNA, IC50).
Assay [2] relates to SH-SY5Y (human neuroblastoma) cells. Briefly: Cell viability, Cell Titer Glo 2.0 assay. To be noted: read-out: Viability SHSY5Y.3 GI50. The gist of the method: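 SH-SY5Y cells were exposed to serially diluted compounds in IMDM with 10% FBS and 0.1% DMSO for 72 hours at 37° C., 5% CO2. Viability was measured by CellTiter-Glo 2.0 luminescence, with medium-only wells as blank.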

In assay [3] the test system is MYB mRNA. Briefly: Gene panel canonical junction qPCR assay, decrease in CJ mRNA, Table 3. To be noted: decrease in canonical junction (CJ) mRNA, gene panel qPCR, Table 3. In short, it runs like this: (§1)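 Canonical exon-junction (CJ) transcript measured by 5′ nuclease RT-qPCR, normalized to GAPDH, GUSB or PPIA and to DMSO control (2^(−ΔΔCt)). A673 or K562 cells treated 24 h at 37° C with an 11-point 3-fold dilution series, top 10 uM, DMSO ≤0.25%. IC50 from 4-parameter logistic fit of percentage CJ decrease.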

Assay [4] has as its system HTT mRNA. Described as above. To be noted: decrease in canonical junction (CJ) mRNA, gene panel qPCR, Table 3. The gist of the method: as §1
Assay [5] concerns MYB mRNA. The experiment in a line: Splicing RT-qPCR assay (THP), Table 2A. Particulars: Table 2A (THP); for AC50: AJ mRNA increase, read-out: MYB AJ (increase in alternative junction mRNA, AC50); for IC50: CJ mRNA decrease, read-out: MYB CJ (decrease in canonical junction mRNA, IC50).

In the case of `COc1cc2nn(C)c(C)c2cc1NC(=O)c1c(F)cc(N2CCC(NC3CC3)CC2)c2cn(C)nc12` [Compound 418, 4-[4-(cyclopropylamino)-1-piperidyl]-6-fluoro-N-(6-methoxy-2,3-dimethyl-indazol-5-yl)-2-methyl-indazole-7-carboxamide], the AC50 in assay [1] was > 10000 nM; in assay [5], 100 to 1000 nM. For the same compound, the IC50 was > 10000 nM in assay [1], 1000 to 10000 nM in assay [3], > 10000 nM in assay [4] and 1000 to 10000 nM in assay [5]. Further, the GI50 in assay [2] was 100 to 1000 nM.

For the compound `COc1c(NC(=O)c2c(F)cc(N3CCC(NC4CC4)CC3)c3cn(C)nc23)cn2cc(C)nc(C)c12` [Compound 419, 4-[4-(cyclopropylamino)-1-piperidyl]-6-fluoro-N-(8-methoxy-1,3-dimethyl-pyrrolo[1,2-a]pyrazin-7-yl)-2-methyl-indazole-7-carboxamide], the figures for the AC50 in assay [1] and in assay [5] were > 10000 nM and 1000 to 10000 nM, respectively. The IC50 in assay [1] is > 10000 nM; in assay [3], 1000 to 10000 nM; in assay [4], > 10000 nM; in assay [5] it was 1000 to 10000 nM. Moreover, the GI50 in assay [2] is 1000 to 10000 nM.

As for `Cn1cc2c(N3CCC(NC4CC4)CC3)cc(F)c(C(=O)Nc3ccnnc3O)c2n1` [Compound 420, 4-[4-(cyclopropylamino)-1-piperidyl]-6-fluoro-N-(3-hydroxypyridazin-4-yl)-2-methyl-indazole-7-carboxamide], the AC50 in assay [1] and in assay [5] was > 10000 nM in each case. Also, the IC50 in assay [1], in assay [3], in assay [4] and in assay [5] was > 10000 nM each time. Further, the concentration for 50% growth inhibition (GI50) in assay [2] is > 10000 nM.

Take `COc1cnncc1NC(=O)c1c(F)cc(N2CCC(NC3CC3)CC2)c2cn(C)nc12` [Compound 421, 4-[4-(cyclopropylamino)-1-piperidyl]-6-fluoro-N-(5-methoxypyridazin-4-yl)-2-methyl-indazole-7-carbox-amide]: the concentration at half-maximal activity (AC50) in assay [1] and in assay [5] was > 10000 nM throughout. The IC50 in assay [1], in assay [3], in assay [4] and in assay [5] was > 10000 nM each time. The GI50 in assay [2] was 1000 to 10000 nM.

With `Cn1cc2cc(NC(=O)c3c(F)cc(N4CCC(NC5CC5)CC4)c4cn(C)nc34)c(F)cc2n1` [Compound 422, 4-[4-(cyclopropylamino)-1-piperidy1]-6-fluoro-N-(6-fluoro-2-methyl-indazol-5-yl)-2-methyl-indazole-7-carboxamide], the values for the AC50 in assay [1] and in assay [5] were 100 to 1000 nM and < 100 nM, respectively. Besides, the IC50 is 100 to 1000 nM in assay [1], < 100 nM in assay [3], 100 to 1000 nM in assay [4] and < 100 nM in assay [5]. The GI50 in assay [2] fell in the range of 100 to 1000 nM.

For the compound `COc1cc(NC(=O)c2c(F)cc(N3CCC(NC4CC4)CC3)c3cn(C)nc23)cc2cn(C)nc12` [Compound 423, 4-[4-(cyclopropylamino)-1-piperidyl]-6-fluoro-N-(7-methoxy-2-methyl-indazol-5-yl)-2-methyl-indazole-7-carboxamide], the AC50 in assay [1] is 1000 to 10000 nM; in assay [5] it was 100 to 1000 nM. Further, the IC50 in assay [1] lay within 1000 to 10000 nM; in assay [3] it was 100 to 1000 nM; in assay [4], 1000 to 10000 nM; in assay [5], 100 to 1000 nM. For the same compound, the GI50 in assay [2] fell in the range of 1000 to 10000 nM.

`CC(=O)NCc1cn2cc(NC(=O)c3c(F)cc(N4CCC(NC5CC5)CC4)c4cn(C)nc34)nc2c(C)n1` [Compound 424, N-[6-(acetamidomethyl)-8-methyl-imidazo [1,2-a]pyrazin-2-yl]-4-[4-(cyclopropylamino)-1-piperidyl]-6-fluoro-2-methyl-indazole-7-carboxamide]: the AC50 in assay [1] and in assay [5] was > 10000 nM in each case. Moreover, the IC50 in assay [1], in assay [3], in assay [4] and in assay [5] was > 10000 nM throughout. The GI50 in assay [2] was > 10000 nM.

`COc1c(NC(=O)c2c(F)cc(N3CCC(NC4CC4)CC3)c3cn(C)nc23)cc2cn(C)nc2c1C` [Compound 425, 4-[4-(cyclopropylamino)-1-piperidy1]-6-fluoro-N-(6-methoxy-2,7-dimethyl-indazol-5-y1)-2-methyl-indazole-7-carboxamide]: the AC50 was in the range of 1000 to 10000 nM in assay [1] and 100 to 1000 nM in assay [5]. Further, the IC50 is 1000 to 10000 nM in assay [1], 100 to 1000 nM in assay [3], 1000 to 10000 nM in assay [4] and 100 to 1000 nM in assay [5]. Also, the GI50 in assay [2] lay within 100 to 1000 nM.

As for `Cn1cc2c(N3CCC(NC4CC4)CC3)cc(F)c(C(=O)Nc3cc4cn(C)nc4n(C)c3=O)c2n1` [Compound 426, 4-[4-(cyclopropylamino)-1-piperidy1]-N-(2,7-dimethyl-6-oxo-pyrazolo[3,4-b]pyridin-5-y1)-6-fluoro-2-methyl-indazole-7-carboxamide], the AC50 lay in the range of 1000 to 10000 nM in assay [1] and 100 to 1000 nM in assay [5]. Besides, the IC50 fell in the range of 1000 to 10000 nM in assay [1], 100 to 1000 nM in assay [3], 1000 to 10000 nM in assay [4] and 100 to 1000 nM in assay [5]. Moreover, in assay [2], the GI50 lay in the range of 1000 to 10000 nM.

Consider `Cc1cn2cc(NC(=O)c3c(F)cc(N4CCC(NC5CC5)CC4)c4cn(C)nc34)nc(-n3ccccc3=O)c2n1` [Compound 427, 4-[4-(cyclopropylamino)-1-piperidyl]-6-fluoro-2-methyl-N-[2-methyl-8-(2-oxo-1-pyridyl)-imidazo[1,2-a]-pyrazin-6-yl]-indazole-7-carboxamide], for which the AC50 was > 10000 nM in assay [1] and 1000 to 10000 nM in assay [5]. The IC50 in assay [1], in assay [3], in assay [4] and in assay [5] was > 10000 nM each time. The GI50 in assay [2] is > 10000 nM.

Turning to `COc1cc2nn(C)cc2cc1NC(=O)c1c(F)cc(N2[C@@H]3CC[C@H]2C[C@@H](NC2CC2)C3)c2cn(C)nc12` [Compound 428, 4-[(1R,5S)-3-(cyclo-propyl-amino)-8-azabicyclo [3.2.1]octan-8-yl]-6-fluoro-N-(6-methoxy-2-methyl-indazol-5-yl)-2-methyl-indazole-7-carboxamide], the values for the AC50 in assay [1] and in assay [5] were > 10000 nM and 1000 to 10000 nM, respectively. Further, the IC50 in assay [1] is > 10000 nM; in assay [3], 1000 to 10000 nM; in assay [4], > 10000 nM; in assay [5] it was 1000 to 10000 nM. Further, in assay [2], the 50% growth inhibitory concentration (GI50) fell in the range of 1000 to 10000 nM.

Regarding `COc1cc2nn(C)cc2cc1NC(=O)c1c(F)cc(N2[C@@H]3CC[C@H]2C[C@H](NC2CC2)C3)c2cn(C)nc12` [Compound 429, 4-[(1S,5R)-3-(cyclopropyl-amino)-8-azabicyclo-[3.2.1]octan-8-yl]-6-fluoro-N-(6-methoxy-2-methyl-indazol-5-yl)-2-methyl-indazole-7-carboxamide], the AC50 in assay [1] was > 10000 nM; in assay [5], 1000 to 10000 nM. The IC50 in assay [1], in assay [3], in assay [4] and in assay [5] was 1000 to 10000 nM in each case. The GI50 in assay [2] lay within 1000 to 10000 nM.

With `COc1nc2nn(C)cc2cc1NC(=O)c1c(F)cc(N2CCC(NC3CC3)CC2)c2cn(C)nc12` [Compound 431, 4-[4-(cyclopropylamino)-1-piperidyl]-6-fluoro-N-(6-methoxy-2-methyl-pyrazolo-[3,4-b]pyridin-5-yl)-2-methyl-indazole-7-carboxamide], the results for the AC50 in assay [1] and in assay [5] were 100 to 1000 nM and < 100 nM, respectively. In addition, the IC50 in assay [1] is 100 to 1000 nM; in assay [3], < 100 nM; in assay [4] it was 100 to 1000 nM; in assay [5], < 100 nM. For the same compound, in assay [2], the GI50 was 100 to 1000 nM.

For the compound `COc1cn2nc(C)cc2cc1NC(=O)c1c(F)cc(N2CCC(NC3CC3)CC2)c2cn(C)nc12` [Compound 432, 4-[4-(cyclopropylamino)-1-piperidyl]-6-fluoro-N-(6-methoxy-2-methyl-pyrazolo[1,5-a]pyridin-5-yl)-2-methyl-indazole-7-carboxamide], the half-maximal activity concentration (AC50) in assay [1] was 100 to 1000 nM; in assay [5], < 100 nM. For the same compound, the IC50 in assay [1] was 100 to 1000 nM; in assay [3], < 100 nM; in assay [4], 100 to 1000 nM; in assay [5] it was < 100 nM. Further, the GI50 in assay [2] is < 100 nM.

With `COc1c(NC(=O)c2c(F)cc(N3CCC(NC4CC4)CC3)c3cn(C)nc23)cc2cn(C)nc2c1Cl` [Compound 433, N-(7-chloro-6-methoxy-2-methyl-indazol-5-yl)-4-[4-(cyclopropylamino)-1-piperidyl]-6-fluoro-2-methyl-indazole-7-carboxamide], the AC50 in assay [1] is 100 to 1000 nM; in assay [5], < 100 nM. For the same compound, the IC50 is 100 to 1000 nM in assay [1], < 100 nM in assay [3], 100 to 1000 nM in assay [4] and < 100 nM in assay [5]. The GI50 in assay [2] is < 100 nM.
